{"source": "patent US12714708B2", "about": "“Compounds with anti-tumor activity against cancer cells bearing HER2 exon 19 mutations” (Board of Regents, The University of Texas System, priority 2019, dated 2026)", "key": {"[1]": {"tested_on": "HER2 exon 19 mutant Ba/F3 cell lines", "assay": "Cell Titer Glo cell viability, Ba/F3 cell lines expressing HER2 exon 19 mutations", "type": "cell-based", "procedure": "In addition, several other HER2 exon 19 mutations including D769Y, D769N, D769H, L755S, and R678Q were tested for their sensitivity to different TKIs including poziotinib.\nCell viability of stable Ba/F3 cell lines expressing HER2 exon 19 mutations grown in IL-3 free conditions was measured for 14 days. Cell viability was determined every 3 days by the Cell Titer Glo assay (FIG. 4). […] Average IC50 values of Ba/F3 cells expressing L755S or L755P with indicated inhibitors were measured (FIG. 5C).\nCell line generation and IL-3 deprivation: Ba/F3 cell line, was cultured in complete RPMI-1640 (R8758; Sigma Life Science) media supplemented with L-glutamine, 10% heat inactivated FBS (Gibco), 1% penicillin/streptomycin (Sigma Life Science), and 10 ng/ml mouse IL-3 (R&D systems) under sterile conditions. Stable cell lines were generated by retroviral transduction of Ba/F3 cell line for 12 hours. Retroviruses were generated by transfecting pBabe-Puro based vectors into the Phoenix 293T ampho packing cell line (Orbigen) using Lipofectamine 2000 (Invitrogen). 72 hours after transduction, 2 μg/ml puromycin (Invitrogen) was added to the media. After 5 days of selection, cells were stained with FITC-HER2 (Biolegend) and sorted via FACS. Cell lines were then grown in the absence of IL-3 for 15 days and cell viability was determined every 3 days using the Cell Titer Glo assay (Progema). Resulting stable cell lines were maintained in complete RPMI-1640 media described above without IL-3. Cell line identity was confirmed by DNA fingerprinting via short tandem repeats using the PowerPlex 1.2 kit (Promega). Fingerprinting results were compared with reference fingerprints maintained by the primary source of the cell line. All cell lines were free of mycoplasma. […]\nCell viability assay and IC50 estimation: Cell viability was determined using the Cell Titer Glo assay (Promega) as previously described (Robichaux et al., 2018). […] Plates were shaken for 15 minutes, and bioluminescence was determined using a FLUOstar OPTIMA multi-mode micro-plate reader (BMG LABTECH). […]"}, "[2]": {"tested_on": "CW-2 cells (HER2 L755S) xenografts", "assay": "CW-2 cell line xenograft tumor growth study", "type": "in vivo, mice", "conditions": "for Tukey's multiple comparisons test Summary: Poziotinib 5 mg/kg", "procedure": "In vivo xenograft studies: CW-2 cell line xenografts were created by injecting 1×10^6 cells in 50% matrigel into 6-week-old female nu/nu nude mice. When tumors reached 350 mm^3 mice were randomized into 4 groups: 20 mg/kg afatinib, 5 mg/kg poziotinib, 30 mg/kg neratinib, or vehicle control (0.5% Methylcellulose, 2% Tween-80 in dH2O). Tumor volumes were measured three times per week. Mice received drug Monday-Friday (5 days per week), but began dosing on Wednesday allowing for a 2-day holiday after the first 3 days of dosing."}, "[3]": {"tested_on": "Ba/F3 HER2 L755P mutant cells", "assay": "Cell Titer Glo cell viability, Ba/F3 cells expressing HER2 L755P", "type": "cell-based", "conditions": "for inhibition of cell viability: Ba/F3 cells expressing HER2 L755P protein; for IC50: Mus musculus, BaF3, Ba/F3 HER2 L755P mutant cells", "procedure": "Ba/F3 cells expressing exon 19 point mutation L755P were generated.\nCell line generation and IL-3 deprivation: Ba/F3 cell line, was cultured in complete RPMI-1640 (R8758; Sigma Life Science) media supplemented with L-glutamine, 10% heat inactivated FBS (Gibco), 1% penicillin/streptomycin (Sigma Life Science), and 10 ng/ml mouse IL-3 (R&D systems) under sterile conditions. Stable cell lines were generated by retroviral transduction of Ba/F3 cell line for 12 hours. Retroviruses were generated by transfecting pBabe-Puro based vectors into the Phoenix 293T ampho packing cell line (Orbigen) using Lipofectamine 2000 (Invitrogen). 72 hours after transduction, 2 μg/ml puromycin (Invitrogen) was added to the media. After 5 days of selection, cells were stained with FITC-HER2 (Biolegend) and sorted via FACS. Cell lines were then grown in the absence of IL-3 for 15 days and cell viability was determined every 3 days using the Cell Titer Glo assay (Progema). Resulting stable cell lines were maintained in complete RPMI-1640 media described above without IL-3. […] To generate HER2 […] cell lines, cells were transduced with c.2264T>C (created from Bioinnovatise from pBabe-puro HER WT from Addgene (#40978)).\n(§1) Cell viability assay and IC50 estimation: Cell viability was determined using the Cell Titer Glo assay (Promega) as previously described (Robichaux et al., 2018). Briefly, 2000-3000 cells per well were plated in 384-well plates (Greiner Bio-One) in technical triplicate. Cells were treated with seven different concentrations of tyrosine kinase inhibitors or vehicle alone at a final volume of 40 μL per well. After 3 days, 11 μL of Cell Titer Glo was added to each well. Plates were shaken for 15 minutes, and bioluminescence was determined using a FLUOstar OPTIMA multi-mode micro-plate reader (BMG LABTECH). Bioluminescence values were normalized to DMSO treated cells, and normalized values were plotted in GraphPad Prism using non-linear regression fit to normalized data with a variable slope. IC50 values were calculated by GraphPad Prism at 50% inhibition."}, "CW-2 colorectal cells": {"tested_on": "CW-2 colorectal cells", "assay": "Cell viability of CW-2 cells treated with inhibitors", "type": "cell-based, human", "conditions": "various concentrations, 72 hours (FIG. 6A)", "procedure": "A mouse study was performed with mice inoculated with CW-2 cells treated with poziotinib, afatinib, or neratinib. […] Thus, poziotinib, as well as structurally similar inhibitors, are potent inhibitors of HER2 exon 19 mutations and can be used as therapeutics to overcome de novo drug resistance.\nas §1\nHuman cell lines: MCF10A cells were purchased from ATCC and were cultured in DMEM/F12 media supplemented with 1% penicillin/streptomycin, 5% horse serum (sigma), 20 ng/ml EGF, […] hydrocortisone, and 10 ug/ml insulin. […]"}, "[4]": {"conditions": "Day 10, vs. Vehicle, Afatinib 20 mg/kg, Neratinib 30 mg/kg, two-way ANOVA of FIG. 6B"}, "[5]": {"conditions": "Day 13, vs. Vehicle, Afatinib 20 mg/kg, Neratinib 30 mg/kg, two-way ANOVA of FIG. 6B"}}, "data": [{"compound": "C=CC(=O)N1CCC(Oc2cc3c(Nc4ccc(Cl)c(Cl)c4F)ncnc3cc2OC)CC1", "note": "[poziotinib, 1-[4-[4-(3,4-dichloro-2-fluoroanilino)-7-methoxyquinazolin-6-yl]oxypiperidin-1-yl]prop-2-en-1-one]", "values": [{"measurement": "IC50 values as compared to the other inhibitors tested", "setting": "[1]; Ba/F3 cells expressing HER2 exon 19 mutations incl. L755S or L755P, 72 hours of drug treatment", "value": "lowest IC50 values"}, {"measurement": "concentrations inhibiting HER2 exon 19 mutants", "setting": "[1]; HER2 exon 19 mutants", "value": "low nanomolar concentrations"}, {"measurement": "inhibition of growth of mutant cells", "setting": "[1]; HER2 exon 19 mutations D769Y, D769N, D769H, L755S, R678Q (FIG. 3)", "value": "inhibited the growth of these mutant cells"}, {"measurement": "Tukey's multiple comparisons test Summary", "setting": "[2]; Day 10, vs. Afatinib (20 mg/kg)", "value": "ns"}, {"measurement": "Tukey's multiple comparisons test Summary", "setting": "[2]; [4]", "value": "ns"}, {"measurement": "Tukey's multiple comparisons test Summary", "setting": "[2]; Day 13, vs. Afatinib (20 mg/kg)", "value": "ns"}, {"measurement": "Tukey's multiple comparisons test Summary", "setting": "[2]; Day 13, vs. Neratinib (30 mg/kg), Afatinib 20 mg/kg", "value": "ns"}, {"measurement": "Tukey's multiple comparisons test Summary", "setting": "[2]; [5]", "value": "ns"}, {"measurement": "Tukey's multiple comparisons test Summary", "setting": "[2]; Day 15, vs. Afatinib (20 mg/kg)", "value": "ns"}, {"measurement": "Tukey's multiple comparisons test Summary", "setting": "[2]; Day 17, vs. Afatinib (20 mg/kg)", "value": "ns"}, {"measurement": "Tumor growth", "setting": "[2]; mice inoculated with CW-2 cells, 5 mg/kg (FIG. 6C)", "value": "significantly decreased"}, {"measurement": "inhibition of cell viability", "setting": "[3]", "value": "inhibition of cell viability"}, {"measurement": "IC50", "setting": "[3]", "value": 3, "unit": "nM"}, {"measurement": "decrease in cell viability", "setting": "CW-2 colorectal cells", "value": "highest decrease in cell viability"}]}, {"compound": "CN(C)C/C=C/C(=O)Nc1cc2c(Nc3ccc(F)c(Cl)c3)ncnc2cc1O[C@H]1CCOC1", "note": "[afatinib]", "values": [{"measurement": "IC50", "setting": "[3]", "value": 13, "unit": "nM"}]}, {"compound": "Cc1cc(C(=O)Nc2nc3cccc(Cl)c3n2[C@@H]2CCCCN(C(=O)/C=C/CN(C)C)C2)ccn1", "note": "[EGF-816]", "values": [{"measurement": "inhibition of cell viability", "setting": "[3]", "value": "failed to inhibit cell viability"}]}, {"compound": "CS(=O)(=O)CCNCc1ccc(-c2ccc3ncnc(Nc4ccc(OCc5cccc(F)c5)c(Cl)c4)c3c2)o1", "note": "[lapatinib]", "values": [{"measurement": "inhibition of cell viability", "setting": "[3]", "value": "failed to inhibit cell viability"}]}, {"compound": "CCOc1cc2ncc(C#N)c(Nc3ccc(OCc4ccccn4)c(Cl)c3)c2cc1NC(=O)/C=C/CN(C)C", "note": "[neratinib]", "values": [{"measurement": "Tukey's multiple comparisons test Summary", "setting": "[2]; [4]", "value": "ns"}, {"measurement": "Tukey's multiple comparisons test Summary", "setting": "[2]; [5]", "value": "ns"}, {"measurement": "Tukey's multiple comparisons test Summary", "setting": "[2]; Day 15, vs. Vehicle, Afatinib 20 mg/kg, Neratinib 30 mg/kg, two-way ANOVA of FIG. 6B", "value": "ns"}, {"measurement": "Tukey's multiple comparisons test Summary", "setting": "[2]; Day 17, vs. Vehicle, Afatinib 20 mg/kg, Neratinib 30 mg/kg, two-way ANOVA of FIG. 6B", "value": "ns"}]}]}
